Data taken from paper PMC13110364, “Design, Synthesis, and Biological Evaluation of Novel Triazine‐Based Dual Histone Deacetylase/phosphatidylinositol 3‐kinase Inhibitors for Breast Cancer Therapy” (Chemmedchem, 2026).
“And” between values parts separate entries of the source, which are not always exact repeats. Equal values may be shown once.

Columns and labels:
PI3Kδ = PI3Kδ (Homo sapiens, UniProt O00329); test: Selectivity profile, single dose 0.5 µM, PI3Kδ; type: biochemical; conditions: remaining enzyme activity; single‐dose duplicate mode at 0.5 μM; read-out: Enzyme % activity (relative to DMSO controls) at 0.5 µM, PI3Kδ
Chain of PI3Kδ (O00329 whole entry, canonical isoform): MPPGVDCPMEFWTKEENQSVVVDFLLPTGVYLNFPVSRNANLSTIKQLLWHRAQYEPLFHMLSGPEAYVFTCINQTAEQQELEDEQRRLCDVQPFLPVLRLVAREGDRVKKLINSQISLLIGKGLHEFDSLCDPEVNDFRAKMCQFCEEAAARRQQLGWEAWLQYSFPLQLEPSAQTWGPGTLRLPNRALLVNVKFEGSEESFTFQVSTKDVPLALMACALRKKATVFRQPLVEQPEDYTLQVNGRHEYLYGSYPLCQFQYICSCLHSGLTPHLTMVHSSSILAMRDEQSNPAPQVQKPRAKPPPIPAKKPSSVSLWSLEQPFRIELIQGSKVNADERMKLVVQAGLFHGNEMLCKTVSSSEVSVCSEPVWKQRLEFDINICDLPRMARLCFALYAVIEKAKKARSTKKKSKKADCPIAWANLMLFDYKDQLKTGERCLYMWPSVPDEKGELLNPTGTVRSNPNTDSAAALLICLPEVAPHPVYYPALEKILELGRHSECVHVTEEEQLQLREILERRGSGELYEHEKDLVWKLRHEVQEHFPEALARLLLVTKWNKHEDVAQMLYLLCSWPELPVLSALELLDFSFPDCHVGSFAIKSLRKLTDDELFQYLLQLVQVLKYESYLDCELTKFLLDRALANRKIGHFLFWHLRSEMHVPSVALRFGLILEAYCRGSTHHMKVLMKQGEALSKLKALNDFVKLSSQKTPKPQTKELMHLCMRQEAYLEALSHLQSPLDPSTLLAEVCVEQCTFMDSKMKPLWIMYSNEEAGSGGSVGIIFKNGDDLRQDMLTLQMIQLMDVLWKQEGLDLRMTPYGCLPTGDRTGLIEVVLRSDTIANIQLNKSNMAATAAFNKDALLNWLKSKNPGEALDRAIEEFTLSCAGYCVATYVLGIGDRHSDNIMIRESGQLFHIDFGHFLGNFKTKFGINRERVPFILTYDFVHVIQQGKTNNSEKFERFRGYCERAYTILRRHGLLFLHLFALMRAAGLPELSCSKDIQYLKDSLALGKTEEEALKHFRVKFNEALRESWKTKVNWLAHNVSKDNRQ
Chain of PI3Kδ (P27986 whole entry partner, canonical isoform): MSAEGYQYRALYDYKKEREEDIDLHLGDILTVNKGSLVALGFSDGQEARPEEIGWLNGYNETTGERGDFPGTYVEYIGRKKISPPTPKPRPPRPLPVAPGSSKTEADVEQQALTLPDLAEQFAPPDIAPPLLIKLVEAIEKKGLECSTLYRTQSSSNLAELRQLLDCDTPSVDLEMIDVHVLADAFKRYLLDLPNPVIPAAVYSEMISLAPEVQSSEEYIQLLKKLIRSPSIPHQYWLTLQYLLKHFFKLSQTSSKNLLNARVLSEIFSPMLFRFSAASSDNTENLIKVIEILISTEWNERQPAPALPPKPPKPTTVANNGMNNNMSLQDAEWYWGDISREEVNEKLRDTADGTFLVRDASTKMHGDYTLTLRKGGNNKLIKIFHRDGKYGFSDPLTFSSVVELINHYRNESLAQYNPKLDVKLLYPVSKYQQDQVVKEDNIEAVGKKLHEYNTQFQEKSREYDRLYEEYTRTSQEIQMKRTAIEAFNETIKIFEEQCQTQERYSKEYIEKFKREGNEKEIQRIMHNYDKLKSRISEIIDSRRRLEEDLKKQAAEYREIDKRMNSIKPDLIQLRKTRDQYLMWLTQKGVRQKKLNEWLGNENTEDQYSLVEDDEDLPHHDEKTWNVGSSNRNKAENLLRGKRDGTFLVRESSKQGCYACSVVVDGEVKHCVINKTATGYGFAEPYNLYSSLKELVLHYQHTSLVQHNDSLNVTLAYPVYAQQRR
Method: (§1) The inhibitory profiles of 5b and 5f were evaluated against selected HDAC isoforms (HDAC1, HDAC3, HDAC4, HDAC8, and HDAC10) and PI3K isoforms (PI3Kδ, PI3Kγ, and PI3Kβ) at a fixed concentration of 0.5 µM (Table 3). […] While we explored the phenyl ring in the linker region to achieve selectivity for the HDAC6 isoform, we still observed HDAC class I inhibition. […] It is important to highlight that PI3Kδ is mainly expressed in hematopoietic system and plays roles in leukocyte signaling, T‐cell activation, and immune cell trafficking. FDA‐approved drug idelalisib is a selective PI3Kδ inhibitor in B‐cell malignancies; however, this drug is also related to disruption of the immune system, which can lead to immune manifestations, such as infections. In addition, while isoform‐selective PI3K inhibitors are well tolerated, pan‐inhibition of PI3K is less expected that compensatory mechanisms by the action of other PI3Ks can take place. Thus, a more balanced profile of PI3K inhibition can lead to an overall lack of toxicity of PI3K inhibitors.

[1] = tested on: MDA‐MB‐231 triple‐negative breast cancer cell line; test: MTS cell viability assay, MDA-MB-231; type: cell-based; conditions: MDA‐MB‐231 cells, 72 h treatment
Method: The cell viability effects of compounds 5a–5f were assessed in LY2, JIMT1, and MDA‐MB‐231 breast cancer cell lines using the 3‐(4,5‐dimethylthiazol‐2‐yl)‐5‐(3‐carboxymethoxyphenyl)‐2‐(4‐sulfophenyl)‐2H‐tetrazolium (MTS) assay. The MTS assay measures metabolic viability and serves as a first‐pass screen.
JIMT‐1 (DSMZ ACC 589) and MDA‐MB‐231 (ATCC HTB‐26) breast cancer cell lines were maintained in Dulbecco's Modified Eagle Medium (DMEM) High Glucose with L‐glutamine (D5796, Sigma) supplemented with 10% fetal calf serum. MCF7‐derivative LY2 breast cancer cells were previously described (REF: PMID: 33420368). LY2 cells were cultured in phenol red‐free MEM (PRF‐MEM; 51 200‐046, Gibco) supplemented with 10% charcoal dextran‐stripped fetal calf serum (CDS‐FCS; F6765, Merck), 2 mmol/L L‐glutamine (G7513, Merck), and 10^−8 mol/L 4‐hydroxytamoxifen (4‐OHT; H7904, Merck). All cell lines were maintained at 37°C in a humidified incubator with 5% CO2 and regularly authenticated and tested for mycoplasma.
Cell viability was evaluated in response to increasing concentrations of 5a‐5f (0.3, 1, 3, 10, and 30 μM) or vehicle control (0.1% DMSO). LY2, JIMT1, and MDA‐MB‐231 cells were seeded at a density of 2,500 cells per well in 96‐well plates with a total volume of 100 μL per well. Prior to treatment, cells were serum‐deprived for 24 h. Following serum depletion, cells were treated in complete growth medium for 72 h. Cell viability was assessed using the MTS assay (G1111, Promega) according to the manufacturer's instructions. Absorbance was measured at 495 nm using a BioTek Synergy HTX Multi‐Mode Microplate Reader (Agilent). Results were normalized to the vehicle control (DMSO), and the half‐maximal inhibitory concentration (IC50) of the inhibitors was determined by nonlinear regression (curve fit) using a four‐parameter variable slope model.

HDAC6 = HDAC6 (Homo sapiens, UniProt Q9UBN7); test: HDAC6 inhibition, 10-dose IC50 (Reaction Biology Corporation); type: biochemical; conditions: 10‐dose IC50 mode, threefold serial dilutions starting at 1 μM
Chain of HDAC6 (Q9UBN7 whole entry): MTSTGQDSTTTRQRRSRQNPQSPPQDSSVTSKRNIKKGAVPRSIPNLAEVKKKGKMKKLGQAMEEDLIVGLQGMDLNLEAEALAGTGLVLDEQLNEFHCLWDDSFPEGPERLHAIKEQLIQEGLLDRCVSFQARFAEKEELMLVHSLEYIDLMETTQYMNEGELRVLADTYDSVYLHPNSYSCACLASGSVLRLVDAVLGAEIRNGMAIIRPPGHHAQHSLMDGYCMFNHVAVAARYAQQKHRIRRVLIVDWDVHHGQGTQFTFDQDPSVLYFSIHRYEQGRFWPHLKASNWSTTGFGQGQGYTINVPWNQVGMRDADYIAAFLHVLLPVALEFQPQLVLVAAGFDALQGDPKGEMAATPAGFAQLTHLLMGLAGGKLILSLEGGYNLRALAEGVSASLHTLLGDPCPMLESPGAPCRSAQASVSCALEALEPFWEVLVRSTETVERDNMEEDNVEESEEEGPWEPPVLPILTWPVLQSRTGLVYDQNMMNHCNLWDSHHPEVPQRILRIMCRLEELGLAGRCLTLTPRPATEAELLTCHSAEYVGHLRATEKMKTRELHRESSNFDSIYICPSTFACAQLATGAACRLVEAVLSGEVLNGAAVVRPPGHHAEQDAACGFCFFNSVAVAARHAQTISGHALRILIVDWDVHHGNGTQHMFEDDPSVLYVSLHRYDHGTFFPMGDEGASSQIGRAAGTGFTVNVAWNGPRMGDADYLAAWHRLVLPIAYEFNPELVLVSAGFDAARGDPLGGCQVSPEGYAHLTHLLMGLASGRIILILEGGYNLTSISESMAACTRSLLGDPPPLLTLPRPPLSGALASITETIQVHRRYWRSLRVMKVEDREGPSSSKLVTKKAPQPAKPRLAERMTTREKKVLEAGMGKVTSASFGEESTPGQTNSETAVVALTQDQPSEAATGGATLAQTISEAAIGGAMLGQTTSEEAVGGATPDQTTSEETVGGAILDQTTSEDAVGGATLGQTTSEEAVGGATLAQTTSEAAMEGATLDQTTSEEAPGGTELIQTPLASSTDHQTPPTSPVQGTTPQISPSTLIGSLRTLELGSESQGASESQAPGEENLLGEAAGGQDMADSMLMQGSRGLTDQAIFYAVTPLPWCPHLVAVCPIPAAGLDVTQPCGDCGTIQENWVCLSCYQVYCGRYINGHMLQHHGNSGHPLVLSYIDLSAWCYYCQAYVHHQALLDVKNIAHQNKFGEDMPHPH

HDAC8 = HDAC8 (Homo sapiens, UniProt Q9BY41); test: Selectivity profile, single dose 0.5 µM, HDAC8; type: biochemical; conditions: remaining enzyme activity; single‐dose duplicate mode at 0.5 μM; read-out: Enzyme % activity (relative to DMSO controls) at 0.5 µM, HDAC8
Chain of HDAC8 (Q9BY41 whole entry): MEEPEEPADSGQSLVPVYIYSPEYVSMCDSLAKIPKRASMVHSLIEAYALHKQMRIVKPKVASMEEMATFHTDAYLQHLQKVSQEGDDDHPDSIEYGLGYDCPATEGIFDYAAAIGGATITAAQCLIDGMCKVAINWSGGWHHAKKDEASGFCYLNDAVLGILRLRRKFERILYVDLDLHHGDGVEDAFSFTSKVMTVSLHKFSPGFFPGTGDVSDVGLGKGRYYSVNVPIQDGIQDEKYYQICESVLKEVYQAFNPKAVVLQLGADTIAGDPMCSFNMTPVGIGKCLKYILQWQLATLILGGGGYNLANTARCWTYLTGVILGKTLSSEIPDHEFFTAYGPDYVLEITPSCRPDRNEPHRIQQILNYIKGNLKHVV
Method: as §1

HDAC4 = HDAC4 (Homo sapiens, UniProt P56524); test: Selectivity profile, single dose 0.5 µM, HDAC4; type: biochemical; conditions: remaining enzyme activity; single‐dose duplicate mode at 0.5 μM; read-out: Enzyme % activity (relative to DMSO controls) at 0.5 µM, HDAC4
Method: as §1

MCF‐10A cells = test: Cell viability in nontransformed cell line MCF-10A; type: cell-based; conditions: Homo sapiens
Text: Thus, further optimization will be required to improve the therapeutic index.
FIGURE 5 Dose‐dependent effects of compound treatment (5b and 5f) on nontransformed breast cell viability across MCF‐10A.

PI3Kγ = PI3Kγ (Homo sapiens, UniProt P48736); test: Selectivity profile, single dose 0.5 µM, PI3Kγ; type: biochemical; conditions: remaining enzyme activity; single‐dose duplicate mode at 0.5 μM; read-out: Enzyme % activity (relative to DMSO controls) at 0.5 µM, PI3Kγ
Chain of PI3Kγ (P48736 whole entry): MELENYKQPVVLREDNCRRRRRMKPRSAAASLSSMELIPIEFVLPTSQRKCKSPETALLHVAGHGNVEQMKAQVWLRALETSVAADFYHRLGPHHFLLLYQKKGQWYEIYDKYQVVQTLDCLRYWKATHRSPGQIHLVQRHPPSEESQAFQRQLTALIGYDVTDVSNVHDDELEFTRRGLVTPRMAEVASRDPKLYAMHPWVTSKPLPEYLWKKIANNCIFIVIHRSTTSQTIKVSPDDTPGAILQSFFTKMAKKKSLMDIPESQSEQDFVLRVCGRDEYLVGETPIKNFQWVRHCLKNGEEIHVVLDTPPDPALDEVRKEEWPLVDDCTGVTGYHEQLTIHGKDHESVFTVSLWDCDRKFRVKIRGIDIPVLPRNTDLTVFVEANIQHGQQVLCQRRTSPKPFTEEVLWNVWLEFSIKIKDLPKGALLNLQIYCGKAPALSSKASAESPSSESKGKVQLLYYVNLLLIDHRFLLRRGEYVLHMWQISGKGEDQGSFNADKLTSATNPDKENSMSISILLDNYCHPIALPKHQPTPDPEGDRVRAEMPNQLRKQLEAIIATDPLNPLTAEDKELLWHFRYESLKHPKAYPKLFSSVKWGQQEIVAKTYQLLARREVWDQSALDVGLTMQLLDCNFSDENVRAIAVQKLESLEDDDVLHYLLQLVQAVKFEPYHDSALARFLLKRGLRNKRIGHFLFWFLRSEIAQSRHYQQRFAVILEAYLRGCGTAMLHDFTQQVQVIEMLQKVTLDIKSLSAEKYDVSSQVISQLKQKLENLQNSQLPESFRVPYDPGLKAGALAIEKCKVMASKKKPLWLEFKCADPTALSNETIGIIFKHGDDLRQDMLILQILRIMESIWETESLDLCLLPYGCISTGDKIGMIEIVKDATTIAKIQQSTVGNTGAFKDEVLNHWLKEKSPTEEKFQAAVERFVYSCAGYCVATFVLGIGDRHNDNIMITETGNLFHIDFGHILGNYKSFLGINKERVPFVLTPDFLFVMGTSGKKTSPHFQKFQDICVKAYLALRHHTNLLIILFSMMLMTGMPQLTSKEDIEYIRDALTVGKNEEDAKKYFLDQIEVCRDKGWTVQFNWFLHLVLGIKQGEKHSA
Method: as §1

HDAC3 = HDAC3 (Homo sapiens, UniProt O15379); test: Selectivity profile, single dose 0.5 µM, HDAC3; type: biochemical; conditions: remaining enzyme activity; single‐dose duplicate mode at 0.5 μM; read-out: Enzyme % activity (relative to DMSO controls) at 0.5 µM, HDAC3
Chain of HDAC3 (O15379 whole entry): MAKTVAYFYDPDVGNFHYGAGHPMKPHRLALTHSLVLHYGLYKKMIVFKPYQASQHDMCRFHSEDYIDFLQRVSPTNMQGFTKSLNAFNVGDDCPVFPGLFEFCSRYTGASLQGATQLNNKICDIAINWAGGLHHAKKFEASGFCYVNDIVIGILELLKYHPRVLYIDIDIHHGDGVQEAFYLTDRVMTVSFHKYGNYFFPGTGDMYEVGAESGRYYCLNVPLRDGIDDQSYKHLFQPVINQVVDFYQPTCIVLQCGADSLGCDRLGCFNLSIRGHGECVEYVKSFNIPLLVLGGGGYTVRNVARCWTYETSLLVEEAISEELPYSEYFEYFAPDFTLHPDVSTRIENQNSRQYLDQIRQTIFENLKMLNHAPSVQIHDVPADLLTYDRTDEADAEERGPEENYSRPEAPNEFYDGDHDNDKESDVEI
Chain of HDAC3 (Q9Y618 395-489 partner limits assumed): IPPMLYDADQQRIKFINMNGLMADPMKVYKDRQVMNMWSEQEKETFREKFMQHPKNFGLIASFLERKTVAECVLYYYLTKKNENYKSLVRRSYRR
Method: as §1

Structure (SMILES)	remaining activity at 0.5 µM (PI3Kδ) [%]	IC50 ([1]; Homo sapiens, MDA-MB-231, 72 h) [µM]	IC50 [1] [µM]	IC50 (HDAC6)	remaining activity at 0.5 µM (HDAC8) [%]	remaining activity at 0.5 µM (HDAC4) [%]	IC50 (MCF‐10A cells) [µM]	remaining activity at 0.5 µM (PI3Kγ) [%]	remaining activity at 0.5 µM (HDAC3) [%]
O=C(NO)c1ccc(CNc2nc(-c3cccc(O)c3)nc(N3CCOCC3)n2)cc1 [Compound 5b, N‐Hydroxy‐4‐(((4‐(3‐Hydroxyphenyl)‐6‐Morpholino‐1,3,5‐Triazin‐2‐yl)Amino)Methyl)Benzamide]	8.24	< 5	4.4 ± 0.54	2.33 nM and 2.3 nM	46.3	89	< 1	29.2	22.6
COc1ccc(-c2nc(NCc3ccc(C(=O)NO)cc3)nc(N3CCOCC3)n2)cn1 [Compound 5f, N‐Hydroxy‐4‐(((4‐(6‐Methoxypyridin‐3‐yl)‐6‐Morpholino‐1,3,5‐Triazin‐2‐yl)Amino)Methyl)Benzamide]	59.2	< 5	3.3 ± 0.13	6.02 nM and 6 nM	46.9	98.4	< 1	77.7	26.6
